What was measured:
[1] = tested on: HUVECs; test: Capillary-like tube formation assay (tubulogenesis); assay type: cell-based, human
Method in brief: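 HUVECs seeded on Matrigel (regular or reduced growth factor) in incomplete ECM basal medium, treated with compound for 6 h; VEGF 50 ng/mL positive and sunitinib 50 nM negative controls. Calcein-AM-stained tubules imaged at 10× and tubule length expressed as % of 0.1% DMSO vehicle.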

[2] = tested on: Balb/c mice; test: Ear angiogenesis assay; assay type: in vivo; conditions: 750 nM along with VEGF and bFGF
Protocol: (A) Control (0.1% DMSO), (B) sunitinib and (C) Compound 1 at their indicated concentration dissolved in 100 μL of 1×PBS injected into the […] of Balb/c mice (5 mice/treatment group). After 7 days of treatment ears were harvested, cryo-sectioned at […] thickness. CD31 immunostained and photographed under inverted microscope at 20× magnification. (B) Vasculature was quantified by counting total macro and micro blood vessels. Plotted graph is representative of four independent experiments and are represented as mean±SEM with significant difference compared with control at *p<0.05.
Sterile 1×PBS having mouse VEGF (50 ng/mL), bFGF (50 ng/mL), Heparin (10 mg/mL) and sunitinib (2 μM) as a positive control along with compound 1 (750 nM) as a test compound were injected subcutaneously into the ear of 8- to 12-week old male Balb/c mice. Equal volume of 1×PBS with all components except drug was used as a control and was injected in contra lateral ear. After 6 days, mice were sacrificed and the ears were excised and embedded in OCT for cryo-sectioning. Frozen sections of […] sizes were immunostained with endothelial cell markers anti CD31 and anti PECAM 1 antibody. This was quantified by total number of blood vessels count.

[3] = tested on: HUVECs protein lysate; test: Drug Affinity Receptor Target (DART) analysis; assay type: binding, human; conditions: 10 mM
Protocol: HUVECs with confluency of 80-85% in 100 mm dish were trypsinised and the media was removed and washed twice with 1×PBS. These cells were lysed with lysis buffer at 4° C. Control and treatment group with […] of protein were incubated with vehicle and Compound 1 at a concentration of 10 mM for 15-30 mins at RT with gentle shaking. Then different proteases like thermolysin (10 μg/15 μL) and pronase at […] were added to both the control and treatment groups for 5-10 mins at RT. Digestion was stopped by adding protease inhibitor (20×) at specific interval and allowed to incubate at 4° C. for 10 mins. 6×SDS-PAGE loading dye was added to all the respective samples and heated at 70° C. for 10 mins. SDS-PAGE was performed for the given control and treatment group samples and then the gel was stained with 0.05% Coomassie Brilliant Blue (CBB-R250). After destaining the gel, bands of different molecular weight of treatment and control groups were excised off from the gel and further employed for the protein sequence analysis through LC/MS-MS (Liquid chromatography/Mass spectroscopy).

[4] = tested on: MDA-MB 468 triple negative breast cancer; test: MDA-MB 468 xenograft mouse model; assay type: in vivo, nude mice
From the text: FIG. 13 represents Effect of Compound 1 on triple negative breast cancer celline MDA-MB 468 in xenograft mouse model.
A nude mice model bearing orthotopic HCT116 colon tumor or MDA-MB 468 was used to evaluate the anti-tumor angiogenesis effect of Compound 1 in vivo (FIG. 12). […] To investigate the effects of Compound 1 on angiogenesis and molecular targets in vivo, we examined the expression level of endothelial-specific marker (CD31) in tumor samples.

For `CCOC(=O)C1N=C1CCc1ccc(OC)cc1` (racemic) [Compound 1, Ethyl 3-(4-methoxyphenethyl)-2H-azirine-2-carboxylate], the “anti-angiogenic activity on primary tubulogenesis screening” value [1] was 75 nM, the tubule formation ([1]; 25 nM, 6 h) was “complete angiogenesis” and the “tubule formation as compared to control” value ([1]; 75 nM, 6 h) was 50%. For the same compound, the tubule formation ([1]; 100 nM combined with sunitinib at 20 nM, 6 h) was “approximately 15%”, the tubule formation ([1]; 250 nM till 125 nM, 6 h) was “light increase in the tubule formation” and the tubulogenesis inhibition ([1]; 10 μM till 500 nM, 6 h) was “complete tubulogenesis inhibition”. The IC50 ([1]; Homo sapiens, HUVEC, endothelial tubule network assay, anti-angiogenic activity, read-out: IC50 value) was 75 nM, the remarks ([1]; remark on IC50 versus sunitinib) was “comparable to sunitinib” and the “toxic effect on the cells” value ([1]; till 500 nM, 6 h) was “no toxic effect”. For the same compound, the “CD31 expression and micro-vessels density” value [2] was “reduced CD31 expression and micro-vessels density”, the “protection of protein band against protease digestion” value [3] was “Intact protein band was observed” and the tumor growth ([4]; 25 mg/kg) was “regresses tumor growth similar to that of sunitinib”. The tumor growth ([4]; 40 mg/kg) was “regresses tumor growth better than the standard compound sunitinib”.
